ED50 and LD50 data for four molecules are collected here from US4728649A, “3-oxo-piperazin-1-yl-ergolines exhibiting antidopaminergic activity” (Farmitalia Carlo Erba, priority 1985, dated 1988).

For data set [1], the system named is central apomorphine-induced climbing. In words: Antagonism to central apomorphine-induced climbing (stereotypes) in mice. Type of data set: in vivo. The note with it: Mus musculus, po; male mice; 60 minutes before 1 mg/kg s.c. apomorphine HCl; evaluated 10 minutes after apomorphine. An excerpt:
(§1) Profiles of the central sedative pharmacological activity were obtained by Irwin's observational assessment of mouse behavior (Irwin, S.--Psychopharmacologia, Berl., 13, 222, 1968), which also gives an indication of the orientative acute toxicity after 7 days observation, and by antagonism to the central apomorphine-induced stereotypes (climbing) in mice.
For the antagonism to central apomorphine-induced climbing (Protais, P. et al.--Psychopharmacology, 50, 1, 1976), the compounds were orally administered to male mice, in a dose range between 0.25 and 10 mg/kg, 60 minutes before the subcutaneous injection of 1 mg/kg of apomorphine HCl. The antagonism to apormorphine-induced climbing behavior was evaluated 10 minutes after apomorphine administration.

The nature of data set [2]: Orientative acute toxicity (Irwin's observational assessment of mouse behavior, 7 days observation). The note with it: in vivo, po, after 7 days observation.
Source text: as §1

In general, ED50 refers to the dose at which the effect has come halfway, by size or by number of responders. In general, LD50 refers to the dose at which mortality reaches 50%. Lower therefore signals greater toxicity. As to `CN1C(=O)CN(C[C@@H]2C[C@@H]3c4cccc5[nH]cc(c45)C[C@H]3N(C)C2)CC1=O` [Example 3, 6-Methyl-8β-(3,5-dioxo-4-methyl-piperazin-1-ylmethyl)-ergoline], the ED50 in data set [1] worked out at 2.2 mg/kg. Further, the LD50 at 168 h in data set [2] amounted to 300 mg/kg.
On the same counts, the results for `CN1C[C@H](CN2CC(=O)NC(=O)C2)C=C2c3cccc4[nH]cc(c34)C[C@H]21` [Example 5, 6-Methyl-9,10-didehydro-8β-(3,5-dioxo-piperazin-1-ylmethyl)-ergoline] are 0.5 mg/kg and 200 mg/kg.
In the case of `CN1C[C@H](CN2CC(=O)NC(=O)C2)C[C@@H]2c3cccc4[nH]cc(c34)C[C@H]21` [Example 1, 6-Methyl-8β-(3,5-dioxo-piperazin-1-ylmethyl)-ergoline], in data set [1], it took a dose of 4.4 mg/kg to reach the 50% effect level (ED50). Besides, the LD50 at 168 h in data set [2] was 600 mg/kg.
`CN1C[C@H](CN2CC(=O)NC(=O)C2)C[C@@H]2c3cccc4c3c(cn4C)C[C@H]21` [Example 2, 1,6-Dimethyl-8β-(3,5-dioxo-piperazin-1-ylmethyl)-ergoline] registered an ED50 in data set [1] of 0.9 mg/kg. In addition, the LD50 at 168 h in data set [2] is 300 mg/kg.
